Measured values from patent US12599676B2, “Cytotoxic imidazo[1,2-A]pyridine compounds and their use in therapy” (MyricX Pharma Limited, priority 2022, dated 2026).
pIC50: −log10 of the molar value.

Key:
DOHH-2 tumor cells = experiment: Subcutaneous xenograft DOHH-2 lymphoma model; format: in vivo, CB17/SCID mice; conditions: intraperitoneal dosing (Example 5: 7 or 20 mg/kg; Example 12: 0.7 or 2 mg/kg), QD cycles
Protocol: The in vivo efficacy of certain Example compounds was assessed in a subcutaneous xenograft DOHH-2 Lymphoma Model using 10 female 6-8 week old CB17/SCID Mice. Each mouse was inoculated subcutaneously at the right front region with DOHH-2 tumor cells (5×10^6) in 0.1 ml of PBS mixed with matrigel (1:1 PBS:matrigel) for tumor development. The test compound administration started once the mean tumor size reached approximately 100-150 mm^3.
Compounds were administered either IP (vehicle 10 mM sodium phosphate+0.2% Tween-80 (pH7.4) or orally (vehicle 15 Na2HPO4 buffer (10 mM) (pH 4.5)+0.2% tween 80). Tumor volumes were measured in two dimensions using a caliper, and the volume expressed in mm^3 using the formula: V=(L×W×W)/2, where V is tumor volume, L is tumor length (the longest tumor dimension) and W is tumor width (the longest tumor dimension perpendicular to L).
Mice were dosed with Example 21 orally (12.5 or 25 mg/kg) once a day for 9 consecutive days (FIG. 3). Example 5 was dosed intraperitoneally (7 or 20 mg/kg) in a cycle consisting of administration QD for three days followed by a three day no-dosing period followed by QD dosing for a further three days (FIG. 4). Example 12 was dosed intraperitoneally (0.7 or 2 mg/kg) in a cycle consisting of administration QD for three days followed by a three day no-dosing period followed by QD dosing for a further three days (FIG. 5). In a separate study Example 12 was dosed at […] in a cycle consisting of administration QD for two days followed by either four or six day no-dosing period, and this cycle was repeated three times (FIG. 6).

[1] = system: BT474 breast cancer cells; experiment: Orthotopic BT474 breast cancer xenograft model; format: in vivo, NOD/SCID mice; conditions: 2.0 mg/kg IV, 2 days dosing then 5 day holiday (Group 6), stopped at day 13
Protocol: NOD/SCID mice were implanted with estrogen pellets (17β-estradiol, 60 day release, 0.36 mg) subcutaneously in the right flank one day before the tumour inoculation. On day −8 each mouse was then injected in the right mammary fat pad with 1×10^7 viable BT474 breast cancer cells resuspended in 0.2 mL of Phosphate Buffered Saline mixed with matrigel (1:1). Mice were assigned to treatment groups when tumour volumes averaged 149.78 mm^3 on study day 0. […] The study was terminated on Study Day 35.
Each group was comprised of 10 mice. Tumour volumes in mice were measured three times per week and tumour volume was calculated using the formula 0.5 (L×W^2). […] Statistical analyses were carried out on tumour readings for Groups 1, 2, 3, 4 and 5 up to Study Day 23 (after this point >50% of the animals within one of the study groups were lost; Group 2) using two-way ANOVA, or a Mixed-Effects model was fitted when values were missing from groups (PRISM GraphPad Software Inc.).
Tumour Growth Inhibition, ΔTGI %=((mean(C)−mean (CO))−(mean(T)−mean(TO)))/(mean(C)−mean(CO))×100% where T is the mean tumour volume on the measurement day and TO is the mean tumour volume of the treated group on Study Day 0. C is the mean tumour volume of the control Group 1 mice on the measurement day and CO is the mean tumour volume on Study Day 0.

[2] = Body weight in BT474 xenograft study; format: in vivo, NOD/SCID mice; conditions: trastuzumab or ADC Example 1 2.5 or 5 mg/kg; Example 12 2 mg/kg (Group 6)
Protocol: During the study, body weights were measured three times weekly for all animals. Animals were given Diet Gel for the entire duration on the study.

[3] = system: CA46 (human B cell lymphoma); experiment: Cell cytotoxicity CellTiter-Glo, CA46; format: cell-based
Protocol: (§1) Cells were seeded in 96-well microplates and treated with compounds or cisplatin (as a positive control) at 9 increasing concentrations in technical triplicate. […] On day 1, 90 μL of various cell suspensions with the number of cells ranging from 5000-8000 cells/well were seeded into wells of a 96-well plate (Corning). The number of cells to be seeded was previously determined. • 2. All 96-wells plates with cells were placed in an incubator overnight at 37° C. with 5% CO2. • 3. On day 2, cells were observed under a microscope ensuring the cells treated with vehicle control were in good condition. • 4. A dilution series of the test compounds and cisplatin were prepared at 10× the final concentrations required. 10 μL/well of 10× compound solution was added to the corresponding plates. The final volume was 100 μL/well for all the plates. Final DMSO concentration was 0.1%. • 5. On day 5 (after 72 hours of incubation), 50 μL of CTG reagent was added to each well. • 6. Contents were mixed for 5 minutes on an orbital shaker to facilitate cell lysis. • 7. The plate was allowed to incubate at room temperature for 10 minutes to stabilize luminescent signals. […]

[4] = system: MX-1 (human breast carcinoma); experiment: Cell cytotoxicity CellTiter-Glo, MX-1; format: cell-based; conditions: MX1
Protocol: as §1

mouse hepatocytes = experiment: Hepatocyte metabolic stability, mouse; format: in vitro ADME
Protocol: Biological Example 6: Rat hepatocyte half life Certain Example compounds and Comparator Compound 1 were tested for metabolic stability in a metabolic assay using mouse- and rat-derived hepatocytes. Compounds having good metabolic stability in the assay are expected to be especially useful as agents for preventing and/or treating cancer, by having a long half-life in human patients.
Frozen pooled rat and mouse hepatocytes obtained from LifeTechnologies were thawed and purified according to the manufacturer's instructions. The test compound (4 mM) in DMSO was diluted with acetonitrile to provide a 100 μM sub-stock then further diluted with pH 7.4 Krebs-Henseleit buffer (supplemented with CaCl2, NaHCO3, HEPES, fructose and glycine) to provide a 2 μM working solution. 25 μL of working solution was incubated at 37° C., treated with 25 μL of rat or mouse hepatocyte suspension (containing 1×10^6 cells/mL) and incubated at 37° C. with 5% CO2 level at 95% relative humidity. Wells were incubated for an appropriate time (0, 15, 30, 45, 60 and 75 min) then quenched with 250 μL of acetonitrile containing reference standards diltiazem, 7-ethoxycoumarin and propranolol). The plates were shaken, sonicated for 5 min then cooled to 4° C. until all sampling was complete. All plates were centrifuged at 4000 rpm for 20 min to pellet the debris. 110 μL supernatant was diluted 110 μL water and quantitated using LC-MS/MS.
A linear regression curve was fitted to a plot of natural logarithm (In) of AUC against time. The T-half (min)=0.693/slope

Row | mHeps t^1/2 (mouse hepatocytes) [min] | SMILES | tumour volume compared to vehicle (DOHH-2 tumor cells) | tumour size [1] | body weights compared to vehicle control [2] | pIC50 [3] | pIC50 [4]
1 | – | CNCc1cnc2ccc(-c3ccc(F)c(F)c3OCCc3c(C(O)C(C)(C)C)nn(C)c3C)cn12 (single isomer, unassigned) [Example 12, 1-(4-(2-(2,3-difluoro-6-(3-((methylamino)methyl)imidazo[1,2-a]pyridin-6-yl)phenoxy)ethyl)-1,5-dimethyl-1H-pyrazol-3-yl)-2,2-dimethylpropan-1-ol] | significant reduction in tumour volume or reduced growth in tumour volume | reduced tumour size | decreased significantly | – | –
2 | 127.68 | Cc1c(CCOc2cc(Cl)ccc2-c2ccc3ncc(CCN)n3c2)c(C(=O)N(C)C)nn1C [Comparator Compound 1, 4-(2-{2-[3-(2-aminoethyl)imidazo[1,2-a]pyridin-6-yl]-5-chlorophenoxy}ethyl)-N,N,1,5-tetramethyl-1H-pyrazole-3-carboxamide, reference compound] | – | – | – | 6.21 | 7.40
